Among the data in US20220281886A1, “NATRIURETIC PEPTIDE RECEPTOR A AGONISTS USEFUL FOR THE TREATMENT OF CARDIOMETABOLIC DISEASES, KIDNEY DISEASE AND DIABETES” (Merck Sharp & Dohme Corp., priority 2019, published 2022) are EC50 values, retold here.

The experiment addresses T1, hNPRA (Homo sapiens, UniProt P16066).
T1 construct: expressed in transfected cells
T1 sequence (P16066 33-1061): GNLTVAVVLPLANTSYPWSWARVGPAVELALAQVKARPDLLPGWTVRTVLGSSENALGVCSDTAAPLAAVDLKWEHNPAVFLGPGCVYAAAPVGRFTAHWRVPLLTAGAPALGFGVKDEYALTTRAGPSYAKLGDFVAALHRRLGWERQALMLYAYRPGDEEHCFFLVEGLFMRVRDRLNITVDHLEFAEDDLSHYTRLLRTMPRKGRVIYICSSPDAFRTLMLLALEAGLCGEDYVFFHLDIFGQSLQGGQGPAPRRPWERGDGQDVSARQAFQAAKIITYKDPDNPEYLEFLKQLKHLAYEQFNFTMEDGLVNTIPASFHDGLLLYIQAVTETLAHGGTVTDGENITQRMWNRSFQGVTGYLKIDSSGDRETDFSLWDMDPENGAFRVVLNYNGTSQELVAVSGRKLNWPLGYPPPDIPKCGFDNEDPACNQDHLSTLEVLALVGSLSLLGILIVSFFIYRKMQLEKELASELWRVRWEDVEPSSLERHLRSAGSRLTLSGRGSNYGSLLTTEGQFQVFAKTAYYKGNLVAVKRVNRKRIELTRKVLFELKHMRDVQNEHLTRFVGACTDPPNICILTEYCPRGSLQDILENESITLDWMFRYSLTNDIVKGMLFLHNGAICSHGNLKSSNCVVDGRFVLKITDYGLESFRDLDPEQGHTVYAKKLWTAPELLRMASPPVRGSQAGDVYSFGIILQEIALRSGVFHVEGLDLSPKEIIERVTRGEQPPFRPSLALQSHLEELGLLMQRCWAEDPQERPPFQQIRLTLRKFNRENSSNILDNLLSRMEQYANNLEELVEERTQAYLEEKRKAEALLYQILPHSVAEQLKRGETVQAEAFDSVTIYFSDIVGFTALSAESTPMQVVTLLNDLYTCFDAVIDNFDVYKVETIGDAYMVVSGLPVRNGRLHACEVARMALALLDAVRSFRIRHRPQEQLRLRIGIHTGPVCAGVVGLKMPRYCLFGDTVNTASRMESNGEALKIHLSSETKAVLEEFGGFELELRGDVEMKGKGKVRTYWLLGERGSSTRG
Description: NPRA Functional Cell Assay (cGMP HTRF). The note with it: Human NPRA HEK JumpIn stable cells; cGMP by HTRF after 1 hour at 37° C.; 10-point dose response. The class given is cell-based. An excerpt:
Assay Buffer components HEPES and Opti-MEM® I Reduced-Serum with Glutamine (no phenol red) were from Gibco/Invitrogen (Thermo Fisher Scientific, Waltham, Mass. USA). 3-Isobutyl-1-methylxanthine (IBMX) and 4-(3-Butoxy-4-methoxybenzyl)imidazolidin-2-one (RO20) were obtained from Sigma-Aldrich (St. Louis, Mo., USA). DPBS (Dulbecco's phosphate-buffered saline) without Ca2+ and Mg2+ was purchased from GE Healthcare Bio-Sciences (Pittsburgh, Pa., USA). 384 well white Optiplates were from Perkin Elmer (Atlantic Highlands, N.J., USA). Human ANP (Atrial Natriuretic Peptide) (1-28) was purchased from Sigma-Aldrich (Catalog #A1663) and rat ANP (1-28) from Bachem (Torrance, Calif., USA) (Catalog #H2100). Human-BNP (Human-Brain Natriuretic Peptide) (1-32 AA) was purchased from American Peptide Company (Sunnyvale, Calif., USA) (product No. 14-1-90). cGMP kits were purchased from Cisbio. The assay ready frozen (ARF) Human/rat/dog NPRA HEK JumpIn Stable frozen cells (low passage number 5-11) were prepared in-house.
Test compounds were titrated in DMSO in a 10-point dose response in a separate step followed by a 100-fold dilution into the reaction. Positive response for each assay was determined using 10 nM rat-ANP peptide (rat cells) or 50 nM h-ANP peptide (human and dog cells).
Cells were thawed, washed with DPBS and resuspended in assay buffer (Opti-MEM+Glutamine, phenol red free media, 10 mM HEPES, 100 uM IBMX and 100 uM RO20) that was warmed to 37° C. Cells were then transferred to microplates via a Microplate Combi dispenser at a density of 1500, 400 and 1200 cells/well for human, rat and dog cells respectively, followed by acoustic transfer (Echo) of compound.
Compounds and cells were incubated at 37° C. with 5% CO2 for 1 hour, after which the cells were lysed and cGMP was captured using a CisBio cGMP HTRF assay kit. The TRF signal was measured with an Envision plate reader (emission set to 615 and 665 nm) after 1 hour incubation at ambient temperature. The TRF signal was converted to [cGMP] through the use of a cGMP calibration curve on each microplate. EC50's were generated from the resulting dose response curves by use of a 4 parameter logistic algorithm.
Assay Buffer components HEPES and Opti-MEM® I Reduced-Serum with Glutamine (no phenol red) were from Gibco/Invitrogen. 3-Isobutyl-1-methylxanthine (IBMX) and 4-(3-Butoxy-4-methoxybenzyl)imidazolidin-2-one (RO20) were obtained from Sigma. DPBS (Dulbecco's phosphate-buffered saline) without Ca2+ and Mg2+ was purchased from GE Healthcare Bio-Sciences (Pittsburgh, Pa., USA). 384 well white Optiplates were from Perkin Elmer (Atlantic Highlands, N.J., USA). Human ANP (1-28) was purchased from Sigma (A1663) and rat ANP (1-28) from Bachem (H2100). Human-BNP (1-32 AA) was purchased from American Peptide Company (Sunnyvale, Calif., USA) (product No. 14-1-90). cGMP kits were purchased from Cisbio (Bedford, Mass., USA). The assay ready frozen (ARF) Human/rat/dog NPRA HEK JumpIn Stable frozen cells (low passage number 5-11) were prepared in-house.
Compounds and cells were incubated at 37° C. with 5% CO2 for 1 hour, after which the cells were lysed and cGMP was captured using a CisBio cGMP HTRF assay kit. The TRF signal was measured with an Envision® plate reader (Perkin Elmer)(emission set to 615 and 665 nm) after 1 hour incubation at ambient temperature. The TRF signal was converted to [cGMP] through the use of a cGMP calibration curve on each microplate. EC50's were generated from the resulting dose response curves by use of a 4 parameter logistic algorithm.
hNPRA EC50 (nM) are were determined for the compounds of Example 1 through 273 and are reported in the Experimental section of this application.
(In TR-FRET formats the signal depends on donor and acceptor labels being close together.)
The term EC50 denotes the concentration needed to bring the measured effect to its halfway point. Read a high EC50 as a less potent agent. The molecule `CC(C)[C@]1(F)CCc2nc3c(F)cc(C(=O)N[C@H](CCN4CCC(CN5CCOCC5)CC4)c4ccc(-c5ccnnc5)nc4)cc3cc2C1` (racemic) [Example 60, rac-(7S)-4,7-difluoro-7-isopropyl-N-[rac-(1R)-3-[4-(morpholinomethyl)-1-piperidyl]-1-(6-pyridazin-4-yl-3-pyridyl)propyl]-6,8-dihydro-5H-acridine-2-carboxamide] had an EC50 of 182 nM.

Consider `CC(C)[C@]1(F)CCc2nc3c(F)cc(C(=O)N[C@H](CCN4[C@H](C)CCC[C@@H]4C)c4ccc(-c5ccnnc5)nc4)cc3cc2C1` (racemic) [Example 61, rac-(7S)-4,7-difluoro-7-isopropyl-N-[rac-(1R)-1-(6-pyridazin-4-yl-3-pyridyl)-3-[rac-(2R,6S)-2,6-dimethyl-1-piperidyllpropyl]-6,8-dihydro-5H-acridine-2-carboxamide], for which it took 103 nM to reach a half-maximal effect (EC50).

For the molecule `CC(C)[C@]1(F)CCc2nc3c(F)cc(C(=O)N[C@H](CCN4CCC5(CCO5)CC4)c4ccc(-c5ccnnc5)nc4)cc3cc2C1` (racemic) [Example 62, rac-(7S)-4,7-difluoro-7-isopropyl-N-[rac-(1R)-3-(1-oxa-7-azaspiro[3.5]nonan-7-yl)-1-(6-pyridazin-4-yl-3-pyridyl)propyl]-6,8-dihydro-5H-acridine-2-carboxamide], the EC50 was determined as 60.3 nM.

As for `CC(C)[C@]1(F)CCc2nc3c(F)cc(C(=O)N[C@H](CCN4CC(O)C4)c4ccc(-c5ccnnc5)nc4)cc3cc2C1` (racemic) [Example 63, rac-(7S)-4,7-difluoro-7-isopropyl-N-[rac-(1R)-3-(3-hydroxyazetidin-1-ium-1-yl)-1-(6-pyridazin-4-yl-3-pyridyl)propyl]-6,8-dihydro-5H-acridine-2-carboxamide;2,2,2-trifluoroacetate], it took 1190 nM to reach a half-maximal effect (EC50).

Regarding `CC(C)[C@]1(F)CCc2nc3c(F)cc(C(=O)N[C@H](CCN4CCC(C(F)(F)F)CC4)c4ccc(-c5ccnnc5)nc4)cc3cc2C1` (racemic) [Example 64, rac-(7S)-4,7-difluoro-7-isopropyl-N-[rac-(1R)-1-(6-pyridazin-4-yl-3-pyridyl)-3-[4-(trifluoromethyl)-1-piperidyllpropyl]-6,8-dihydro-5H-acridine-2-carboxamide], the EC50 was 1060 nM.

Turning to `COC(=O)CC1CCN(CC[C@@H](NC(=O)c2ccc3nc4c(cc3c2)C[C@@H](C2(C)CC2)CC4)c2cccc(C(=O)NC3CN(C)C3)c2)CC1` (racemic) [Example 65, methyl 2-[1-[rac-(3R)-3-[(1-methylazetidin-3-yl)carbamoyl]phenyl]-3-[[rac-(7S)-7-(1-methylcyclopropyl)-5,6,7,8-tetrahydroacridine-2-carbonyl]amino]propyl]-4-piperidyl]acetate], the EC50 was 359 nM.

`CN1CC(NC(=O)c2cccc([C@@H](CCN3CCC(CC(=O)O)CC3)NC(=O)c3ccc4nc5c(cc4c3)C[C@@H](C3(C)CC3)CC5)c2)C1` (racemic) [Example 66, 2-[1-[rac-(3R)-3-[3-[(1-methylazetidin-3-yl)carbamoyl]phenyl]-3-[[rac-(7S)-7-(1-methylcyclopropyl)-5,6,7,8-tetrahydroacridine-2-carbonyl]amino]propyl]-4-piperidyl]acetic acid] registered an EC50 of 398 nM.

`CN(C)CC[C@@H](NC(=O)c1ccc2nc3c(cc2c1)C[C@@H](C1(C)CC1)CC3)c1cccc(C(=O)NC2CN(C)C2)c1` (racemic) [Example 67, rac-(7S)-7-(1-methylcyclopropyl)-N-[rac-(1R)-3-(dimethylamino)-1-[3-[(1-methylazetidin-3-yl)carbamoyl]phenyl]propyl]-5,6,7,8-tetrahydroacridine-2-carboxamide] came in with an EC50 of 378 nM.

`CN1CC(NC(=O)c2cccc([C@@H](CCN3CCC(O)CC3)NC(=O)c3ccc4nc5c(cc4c3)C[C@@H](C3(C)CC3)CC5)c2)C1` (racemic) [Example 68, rac-(7S)-7-(1-methylcyclopropyl)-N-[rac-(1R)-3-(4-hydroxy-1-piperidyl)-1-[3-[(1-methylazetidin-1-ium-3-yl)carbamoyl]phenyl]propyl]-5,6,7,8-tetrahydroacridine-2-carboxamide;2,2,2-trifluoroacetate] showed an EC50 of 369 nM.

As to `CCS(=O)(=O)c1ccc([C@@H](CCN2CCC(O)CC2)NC(=O)c2cc(F)c3nc4c(cc3c2)CC(F)(C(C)C)CC4)cn1` (stereo in doubt) [Example 30, (S)-N-((R)-1-(6-(ethylsulfonyl)pyridin-3-yl)-3-(4-hydroxypiperidin-1-yl)propyl)-4,7-difluoro-7-isopropyl-5,6,7,8-tetrahydroacridine-2-carboxamide], the EC50 came out at 970 nM.

Regarding `CC1([C@H]2CCc3nc4ccc(C(=O)N[C@H](CCN5CCC(O)CC5)c5ccc(N6CCOC6=O)cc5)cc4cc3C2)CC1` [Example 1, (S)-N-((R)-3-(4-hydroxypiperidin-1-yl)-1-(4-(2-oxooxazolidin-3-yl)phenyl)propyl)-7-(1-methylcyclopropyl)-5,6,7,8-tetrahydroacridine-2-carboxamide], the half-maximal effective concentration (EC50) was found to be 701 nM.

Molecule `CC1([C@H]2CCc3nc4ccc(C(=O)N[C@H](CCN5CCC[C@H]5CO)c5ccc(N6CCOC6=O)cc5)cc4cc3C2)CC1` [Example 2, (S)-N-((R)-3-((S)-2-(hydroxymethyl)pyrrolidin-1-yl)-1-(4-(2-oxooxazolidin-3-yl)phenyl)propyl)-7-(1-methylcyclopropyl)-5,6,7,8-tetrahydroacridine-2-carboxamide] yielded an EC50 of 1720 nM.

In turn, `CC(C)(C)[C@H]1CCc2nc3ccc(C(=O)N[C@H](CCN4CCC(O)CC4)c4ccc(N5CCOC5=O)cc4)cc3cc2C1` [Example 3, (7S)-7-tert-butyl-N-{(1R)-3-(4-hydroxypiperidin-1-yl)-1-[4-(2-oxo-1,3-oxazolidin-3-yl)phenyl]propyl}-5,6,7,8-tetrahydroacridine-2-carboxamide] showed an EC50 of 753 nM.
